Data published in PMC11589570, “Critical assessment of LC3/GABARAP ligands used for degrader development and ligandability of LC3/GABARAP binding pockets” (Nature Communications, 2024).

Target: LC3A (Homo sapiens, UniProt Q9H492)
Test: Isothermal titration calorimetry (ITC)
Type: binding
Details: LC3A; read-out: KD (ITC)
Excerpt: To minimize nonspecific dilution heat effects, DMSO concentrations in the protein and compound samples were matched. […] For this protocol, the chamber was pre-equilibrated with the protein, and the test compounds were titrated while continuously measuring the rate of exothermic heat evolution. The heat of binding was integrated, corrected, and fitted to an independent single-binding site model based on the manufacturer’s instructions, from which thermodynamic parameters (ΔH and TΔS), equilibrium association and dissociation constants (KA and KD, respectively), and stoichiometry (n) were calculated using TA Instruments NanoAnalyze software.

Kd: 2000 nM
Compound: CCCCCCC(Sc1nc(Cl)cc(Nc2nc(-c3ccc(C(=O)O)cc3)cs2)n1)C(=O)O (stereo not shown) [compound 21]
